The test system of this experiment is THP-1 CD14. The experiment can be described thus: THP-1 CD14 Screening Assay. It counts as cell-based. The settings on record: THP-1 cells treated with PMA and compound (5-point 10-fold dilution), human CD14 ELISA on media. Here is the method:
THP-1 CD14 Screening Assay Protocol:
5×10^4 THP-1 cells were plated per well in a tissue culture-treated 96-well plate. At the time of plating, cells were treated with a final concentration of […] PMA and 0.04% DMSO vehicle, concominant with compounds in a 5-point 10-fold dilution per compound. Cells were treated with PMA and DMSO as a control for differentiation without compound treatment, and with only DMSO as a control for no differentiation and no compound treatment. 500 nM IACS-71432 was added as a control compound across all assay plates.
After incubation at 37° C./5% CO2 for 72 hr, media was collected from the cells and the screening assay was performed using the commercially-available human CD14 SimpleStep ELISA kit from Abcam, according to the following protocol: • 1) ELISA kits were taken out to equilibrate to rt. • 2) Following the protocol listed in the kit, standards were prepared as 1:1 dilutions from 2 ng/ml. • 3) Following the protocol listed in the kit, antibody cocktail was prepared (the volume is contingent on the number of wells required). • 4) 50 μl of standards were added to the appropriate wells, thoroughly mizing the standards before adding to each well. • 5) 25 μl of Sample Diluent (from kit) was added to all sample wells. • 6) Cell plates were centrifuged for 5 min at 300 rcf, with slow acceleration and slow deceleration. • 7) 25 μl of media from cell plates was transferred to assay plates containing standards. • 8) 50 μl of antibody cocktail was added to all of the wells, standards and samples. • 9) Assay plates were sealed tightly and incubated on the plate shaker at 400 rpm for 1 hr at rt. • 10) Wash buffer was prepared following the protocol listed in the kit. • 11) After the hour incubation, assay plates were washed 5 times using 200 μl wash buffer per well per wash. • 12) 100 μl of TMB substrate was added to each well in the dark and incubated on the shaker for 3-4.min, at which point color development was monitored to ensure a robust signal for detection but to avoid oversaturation of signal, for no longer than 10 min. • 13) The absorbance at 607 nm was read on a Perkin Elmer Envision plate reader. • 14) Data was processed using Microsoft Excel and GraphPad Prism.
Background: In an ELISA, binding on a coated surface is turned into a signal by an enzyme label.

Our source for the IC50 values is US20240043384A1, “INHIBITORS OF PU.1 FOR THE TREATMENT OF DISEASE” (Board of Regents, The University of Texas System, priority 2021, published 2024).

Consider `CC1(C)CCC(c2ccc(S(=O)(=O)NCc3ccncc3)cc2)CC1` [Example 20, 4-(4,4-dimethyl-cyclohexyl)-N-(pyridin-4-ylmethyl) benzenesulfonamide], for which the IC50 (commonly the concentration needed to halve the response being measured) (Homo sapiens, THP-1, 72 h) is less than 5 nM.

As to `O=S(=O)(NCc1ccncc1)c1ccc(N2CC3(CCC3)C2)cc1` [Example 33, N-(pyridin-4-ylmethyl)-4-(2-azaspiro[3.3]heptan-2-yl)benzenesulfonamide], the IC50 (Homo sapiens, THP-1, 72 h) was in the range of 5 to 100 nM.

On to `O=S(=O)(Nc1cccc2cnccc12)c1ccc(C2CCCCC2)cc1` [Example 6, 4-Cyclohexyl-N-(isoquinolin-5-yl)benzenesulfonamide], for which the IC50 (Homo sapiens, THP-1, 72 h) is less than 5 nM.

Turning to `CC(=O)Nc1cc(CNS(=O)(=O)c2ccc(C3CCCCC3)cc2)ccn1` [Example 10, N-(4-(((4-cyclohexylphenyl)sulfonamido)methyl)pyridin-2-yl)acetamide], the IC50 (Homo sapiens, THP-1, 72 h) fell in the range of 5 to 100 nM.

In turn, `CN1CCN(c2ccc(S(=O)(=O)NCc3ccncc3)cc2)CC1` [Example 3, 4-(4-methylpiperazin-1-yl)-N-(pyridin-4-ylmethyl)benzenesulfonamide] gave an IC50 (Homo sapiens, THP-1, 72 h) of 100 to 500 nM.

`CC1(C)CCN(c2ccc(S(=O)(=O)NCc3ccncc3)cc2)C1` [Example 26, 4-(3,3-dimethylpyrrolidin-1-yl)-N-(pyridin-4-yl-methyl)benzenesulfonamide]: under “Homo sapiens, THP-1, 72 h”, the IC50 was in the range of 5 to 100 nM.

As for `O=C1NCc2ccc(-c3ccc(S(=O)(=O)NCc4ccncc4)cc3)cc21` [Example 57, 4-(3-oxoisoindolin-5-yl)-N-(pyridin-4-ylmethyl)-benzenesulfonamide], under “Homo sapiens, THP-1, 72 h”, the IC50 was 5 to 100 nM.

Compound `CN1CC=C(c2ccc(S(=O)(=O)NCc3ccncc3)cc2)CC1` [Example 13, 4-(1-methyl-1,2,3,6-tetrahydropyridin-4-yl)-N-(pyridin-4-ylmethyl)-benzenesulfonamide] displayed an IC50 (Homo sapiens, THP-1, 72 h) of 100 to 500 nM.

The compound `O=S(=O)(NCc1ccncc1)c1ccc(N2CCCCC2)cc1` [Example 22, 4-(piperidin-1-yl)-N-(pyridin-4-ylmethyl)-benzenesulfonamide] registered an IC50 (Homo sapiens, THP-1, 72 h) of 5 to 100 nM.

`O=S(=O)(NCc1ccncc1)c1ccc(-c2ccc3c(c2)OCO3)cc1` [Example 53, 4-(benzo[d][1,3]dioxol-5-yl)-N-(pyridin-4-ylmethyl)-benzenesulfonamide] returned a half-inhibitory concentration (IC50) (Homo sapiens, THP-1, 72 h) of less than 5 nM.

Compound `Cn1ncc2c(NS(=O)(=O)c3ccc(C4CCCCC4)cc3)cccc21` [Example 63, 4-cyclohexyl-N-(1-methyl-1H-indazol-4-yl)benzenesulfonamide] displayed an IC50 (Homo sapiens, THP-1, 72 h) of less than 5 nM.

Regarding `O=S(=O)(NCc1ccncc1)c1ccc(C2CCCOC2)cc1` (centres unmarked) [Example 17, N-(pyridin-4-ylmethyl)-4-(tetrahydro-2H-pyran-3-yl)-benzenesulfonamide], the IC50 (Homo sapiens, THP-1, 72 h) was less than 5 nM.

`O=S(=O)(NCc1ccncc1)c1ccc(N2CCC(F)(F)C2)cc1` [Example 29, 4-(3,3-difluoropyrrolidin-1-yl)-N-(pyridin-4-ylmethyl)-benzenesulfonamide] gave an IC50 (Homo sapiens, THP-1, 72 h) of 5 to 100 nM.

In the case of `O=S(=O)(NCc1ccncc1)c1ccc(N2CCCC(F)C2)cc1` (centres unmarked) [Example 30, 4-(3-fluoropiperidin-1-yl)-N-(pyridin-4-ylmethyl)-benzenesulfonamide], the IC50 (Homo sapiens, THP-1, 72 h) was in the range of 5 to 100 nM.

Turning to `O=S(=O)(NCc1ccncc1)c1ccc(-c2ccc3ncnc(O)c3c2)cc1` [Example 54, 4-(4-hydroxyquinazolin-6-yl)-N-(pyridin-4-ylmethyl)-benzenesulfonamide], the IC50 (Homo sapiens, THP-1, 72 h) lay in the range of 100 to 500 nM.

As for `Cc1n[nH]c2cc(-c3ccc(S(=O)(=O)NCc4ccncc4)cc3)ccc12` [Example 59, 4-(3-methyl-1H-indazol-6-yl)-N-(pyridin-4-ylmethyl)-benzenesulfonamide], the IC50 (Homo sapiens, THP-1, 72 h) is less than 5 nM.

For the setting “Homo sapiens, THP-1, 72 h”, `O=C1NCCc2ccc(-c3ccc(S(=O)(=O)NCc4ccncc4)cc3)cc21` [Example 56, 4-(1-oxo-1,2,3,4-tetrahydroisoquinolin-7-yl)-N-(pyridin-4-ylmethyl)-benzenesulfonamide] gave a half-maximal inhibitory concentration (IC50) of 5 to 100 nM.

Consider `CC1(C)CN(c2ccc(S(=O)(=O)NCc3ccncc3)cc2)C1` [Example 32, 4-(3,3-dimethylazetidin-1-yl)-N-[(pyridin-4-yl)methyl]benzene-1-sulfonamide], for which the IC50 (Homo sapiens, THP-1, 72 h) lay within 5 to 100 nM.

For the compound `O=S(=O)(NCc1ccncc1)c1ccc(N2CCCC(F)(F)C2)cc1` [Example 31, 4-(3,3-difluoropiperidin-1-yl)-N-(pyridin-4-ylmethyl)-benzenesulfonamide], the IC50 (72 hr) was less than 5 nM.

In turn, `O=S(=O)(NCc1ccncc1)c1ccc(C2CCCC2)cc1` [Example 2, 4-cyclopentyl-N-(pyridin-4-ylmethyl)benzenesulfonamide] displayed an IC50 (Homo sapiens, THP-1, 72 h) of less than 5 nM.

The compound `Cc1nc2cc(-c3ccc(S(=O)(=O)NCc4ccncc4)cc3)ccc2s1` [49 (a), 4-(2-methyl-benzo[d]thiazol-5-yl)-N-(pyridin-4-ylmethyl)-benzenesulfonamide] gave an IC50 (72 hr) of less than 5 nM.

`Cn1ncc2cc(-c3ccc(S(=O)(=O)NCc4ccncc4)cc3)ccc21` [Example 44, 4-(1-methyl-1H-indazol-5-yl)-N-(pyridin-4-ylmethyl)-benzenesulfonamide]: under “Homo sapiens, THP-1, 72 h”, the IC50 was less than 5 nM.

In turn, `Cc1cc(-c2ccc(S(=O)(=O)NCc3ccncc3)cc2)ccn1` [Example 40, 4-(2-methylpyridin-4-yl)-N-(pyridin-4-ylmethyl)-benzenesulfonamide] displayed an IC50 (Homo sapiens, THP-1, 72 h) of less than 5 nM.

Where the note is “Homo sapiens, THP-1, 72 h”, `O=S(=O)(NCc1ccncc1)c1ccc(-c2cccnc2)cc1` [Example 4, 4-(pyridin-3-yl)-N-(pyridin-4-ylmethyl)benzenesulfonamide] had a half-maximal inhibitory concentration (IC50) of 100 to 500 nM.

`O=S(=O)(NCc1ccncc1)c1ccc(N2CC3(C2)CC(F)(F)C3)cc1` [Example 34, 4-(6,6-difluoro-2-azaspiro[3.3]heptan-2-yl)-N-(pyridin-4-ylmethyl)-benzenesulfonamide]: the IC50 (Homo sapiens, THP-1, 72 h) was 5 to 100 nM.

With `Nc1cc(CNS(=O)(=O)c2ccc(C3CCCCC3)cc2)ccn1` [Example 9, N-((2-aminopyridin-4-yl)methyl)-4-cyclohexylbenzenesulfonamide], the IC50 (Homo sapiens, THP-1, 72 h) was less than 5 nM.

Regarding `O=S(=O)(NCc1ccncc1)c1ccc(-c2ncccc2Cl)cc1` [Example 43, 4-(3-chloropyridin-2-yl)-N-(pyridin-4-ylmethyl)-benzenesulfonamide], the half-inhibitory concentration (IC50) (Homo sapiens, THP-1, 72 h) was less than 5 nM.

On to `O=S(=O)(NCc1ccncc1)c1ccc(-c2ccncc2)cc1` [Example 38, 4-(pyridin-4-yl)-N-(pyridin-4-ylmethyl)benzenesulfonamide], for which the IC50 (Homo sapiens, THP-1, 72 h) fell in the range of 5 to 100 nM.

The compound `O=S(=O)(NCc1ccncc1)c1ccc(-c2ccc3cc[nH]c3c2)cc1` [Example 58, 4-(1H-indol-6-yl)-N-(pyridin-4-ylmethyl)-benzenesulfonamide] came in with a half-inhibitory concentration (IC50) (Homo sapiens, THP-1, 72 h) of less than 5 nM.

Turning to `O=S1(=O)CCC(c2ccc(S(=O)(=O)NCc3ccncc3)cc2)CC1` [Example 18, 4-(1,1-dioxotetrahydro-2H-thiopyran-4-yl)-N-(pyridin-4-ylmethyl)-benzenesulfonamide], under “Homo sapiens, THP-1, 72 h”, the IC50 is greater than 500 nM.

Turning to `O=S(=O)(NCc1ccncc1)c1ccc(N2CCC3(CC2)CC3)cc1` [Example 35, N-(pyridin-4-ylmethyl)-4-(6-azaspiro[2.5]octan-6-yl)-benzenesulfonamide], the IC50 (Homo sapiens, THP-1, 72 h) was less than 5 nM.

In turn, `Cc1cnccc1-c1ccc(S(=O)(=O)NCc2ccncc2)cc1` [Example 39, 4-(3-methylpyridin-4-yl)-N-(pyridin-4-ylmethyl)-benzenesulfonamide] returned a half-maximal inhibitory concentration (IC50) (Homo sapiens, THP-1, 72 h) of less than 5 nM.
